US8609173B2, “Compositions comprising sweetness enhancers and methods of making them” (Senomyx Inc., priority 2008, dated 2013)

How the values were obtained:
[1] = system: External panelists; test: Line scale (15-point sucrose equivalence) sensory test, Example 5, sucrose or LSB, pH 7.1; type: in vivo, Human
Protocol: (§1) Several types of sensory tests were used to determine the efficacy of 3-(4-amino-2,2-dioxide-1H-benzo[c][1,2,6]thiadiazin-5-yloxy)-2′,2′-dimethyl-N-propylpropanamide 3-(4-amino-2,2-dioxide-1H-benzo[c][1,2,6]thiadiazin-5-yloxy)-2′,2′-dimethyl-N-propylpropanamide in enhancing the sweetness of sucrose. Two types of tests were conducted: • 1) Sensory scaling tests were performed using a 15-point percent sucrose equivalence scale for sweetness in order to evaluate sweetness enhancement 3-(4-amino-2,2-dioxide-1H-benzo[c][1,2,6]thiadiazin-5-yloxy)-2′,2′-dimethyl-N-propylpropanamide 3-(4-amino-2,2-dioxide-1H-benzo[c][1,2,6]thiadiazin-5-yloxy)-2′,2′-dimethyl-N-propylpropanamide in sucrose or in fructose. • 2) Paired comparison tests (2-alternative forced choice difference tests) were used to determine sweetness equivalence for solutions of sucrose vs. 3-(4-amino-2,2-dioxide-1H-benzo[c][1,2,6]thiadiazin-5-yloxy)-2′,2′-dimethyl-N-propylpropanamide 3-(4-amino-2,2-dioxide-1H-benzo[c][1,2,6]thiadiazin-5-yloxy)-2′,2′-dimethyl-N-propylpropanamide or buffer vs. 3-(4-amino-2,2-dioxide-1H-benzo[c][1,2,6]thiadiazin-5-yloxy)-2′,2′-dimethyl-N-propylpropanamide 3-(4-amino-2,2-dioxide-1H-benzo[c][1,2,6]thiadiazin-5-yloxy)-2′,2′-dimethyl-N-propylpropanamide. Stimuli:
Tests were performed with sucrose or fructose. The sweetener was evaluated with and/or without 3-(4-amino-2,2-dioxide-1H-benzo[c][1,2,6]thiadiazin-5-yloxy)-2′,2′-dimethyl-N-propylpropanamide 3-(4-amino-2,2-dioxide-1H-benzo[c][1,2,6]thiadiazin-5-yloxy)-2′,2′-dimethyl-N-propylpropanamide at the appropriate concentration(s).
3-(4-amino-2,2-dioxide-1H-benzo[c][1,2,6]thiadiazin-5-yloxy)-2′,2′-dimethyl-N-propylpropanamide was prepared as a concentrated stock solution in ethanol to ensure dissolution of the 3-(4-amino-2,2-dioxide-1H-benzo[c][1,2,6]thiadiazin-5-yloxy)-2′,2′-dimethyl-N-propylpropanamide. Therefore, all taste solutions contained ethanol in the final solution. Samples without 3-(4-amino-2,2-dioxide-1H-benzo[c][1,2,6]thiadiazin-5-yloxy)-2′,2′-dimethyl-N-propylpropanamide also contained an equivalent concentration of ethanol. For samples involving 3-(4-amino-2,2-dioxide-1H-benzo[c][1,2,6]thiadiazin-5-yloxy)-2′,2′-dimethyl-N-propylpropanamide at 5-10 ppm (up to 28 μM), the final concentration of ethanol was 0.2%; 30-40 μM, 0.4% ethanol; 50 μM, 0.5% ethanol; and 100 μM, 1% ethanol.
Taste samples were also prepared in low sodium phosphate buffer (pH 7.1; “LSB”) lacking sucrose to evaluate the taste of 3-(4-amino-2,2-dioxide-1H-benzo[c][1,2,6]thiadiazin-5-yloxy)-2′,2′-dimethyl-N-propylpropanamide alone. Low sodium phosphate buffer consists of 0.3 mM KCl, 0.5 mM Na2HPO4, and 0.175 mM KH2PO4.
In scaling test situations, the samples were rated on a 15-point scale for sweetness, ranging from 0=0% sucrose to 15=15% sucrose. To evaluate attributes other than sweetness, references are used for training and are prepared according to the table below. Note that each reference was given a score of 5 on the 15-point scale.
External panelists were used for the tests. The exact number of panelists is reported with test results. Subjects were instructed not to eat or drink anything (except water) for at least 1 hour prior to the test.
Panelists rinsed their mouths with water prior to starting any test. Samples were presented to panelists in a randomized, counterbalanced order. Panelists rinsed with water and had up to a 1 minute delay to clear the mouth of any tastes after each evaluation. Two replicates of each test were performed, unless otherwise noted.
In scaling tests, panelists rate samples monadically for the attributes listed above (see Stimuli). In paired comparison tests, panelists taste pairs of solutions and indicate which sample is perceived to be sweeter.
Attributes of interest are reported for each scaling taste test.
Panelists rinsed their mouths with water prior to starting any test. Samples were presented to panelists in a randomized, counterbalanced order. […]

[2] = system: Panelists; test: Paired comparison taste test, Example 7, sucrose or fructose solutions; type: in vivo, Human
Protocol: as §1
Panelists evaluated two solutions in a paired comparison taste test procedure. They were instructed to select the sweeter of the two samples. They were also asked to comment on how difficult it was to tell the difference in sweetness between both samples and if any off tastes were perceived.
Panelists evaluated two solutions in a paired comparison taste test procedure and were instructed to select the sweeter of the two samples.

## CCCNC(=O)C(C)(C)COc1cccc2c1C(N)=NS(=O)(=O)N2 [3-(4-amino-2,2-dioxide-1H-benzo[c][1,2,6]thiadiazin-5-yloxy)-2′,2′-dimethyl-N-propylpropanamide]
[1]; 25.0 μM (8.9 ppm) compound on its own
  off tastes: no significant off tastes
[1]; 25 μM (8.9 ppm) compound on its own, pH 7, n = 30
  Average Sweetness: 0.6
[1]; 25.0 μM (8.9 ppm) compound on its own, p>0.10
  Sweetness vs sucrose solutions (conclusion): not significantly different in sweetness than 0% sucrose
[1]; 25 μM compound on its own, n = 30
  Average Bitterness: 0.2
[1]; 50 μM (17.7 ppm) compound on its own in LSB, pH 7.1, n = 14
  Average Sweetness: 1.3
[1]; 50 μM compound in LSB, pH 7.1
  bitter off tastes: no significant bitter off tastes
[1]; 50 μM compound on its own in LSB
  off tastes: no significant off tastes
[1]; 1% Sucrose + 5 ppm (14.11 μM) compound, n = 30
  Average Bitterness: 0.4
[1]; 1% Sucrose + 5 ppm (14.11 μM) compound, pH 7.1, n = 30
  Average Sweetness: 2.5
[1]; 1% sucrose + 5 ppm compound, p>0.10
  Sweetness vs sucrose solutions (conclusion): not significantly different in sweetness than 2% sucrose
[1]; 1-10 ppm compound in 6% sucrose, LSB, pH 7.1
  off tastes: no significant off tastes
[1]; 2% Sucrose + 25 μM (8.9 ppm) compound, pH 7.1, n = 28
  Average Sweetness: 5.6
[1]; 2% Sucrose + 25 μM compound, n = 28
  Average Bitterness: 0.3
[1]; 2% Sucrose + 5 ppm (14.11 μM) compound, n = 30
  Average Bitterness: 0.2
[1]; 2% Sucrose + 5 ppm (14.11 μM) compound, pH 7.1, n = 30
  Average Sweetness: 4.6
[1]; 2% sucrose + 5 ppm compound
  Sweetness vs sucrose solutions (conclusion): not significantly different in sweetness than 4% sucrose
[1]; 2% sucrose + 8.9 ppm compound, p>0.10
  Sweetness vs sucrose solutions (conclusion): not significantly different in sweetness than 6% sucrose
[1]; 4% Sucrose + 25 μM (8.9 ppm) compound, pH 7.1, n = 28
  Average Sweetness: 8.3
[1]; 4% Sucrose + 25 μM compound, n = 28
  Average Bitterness: 0.3
[1]; 4% Sucrose + 5 ppm (14.11 μM) compound, n = 30
  Average Bitterness: 0.2
[1]; 4% Sucrose + 5 ppm (14.11 μM) compound, pH 7.1, n = 30
  Average Sweetness: 8.1
[1]; 4% sucrose + 5 ppm compound, p>0.10
  Sweetness vs sucrose solutions (conclusion): not significantly different in sweetness than 8% sucrose
[1]; 4% sucrose + 8.9 ppm compound, p>0.10
  Sweetness vs sucrose solutions (conclusion): not significantly different in sweetness than 8% sucrose
[1]; 5 ppm compound in 1-6% sucrose, LSB, pH 7.1
  off tastes: no significant off tastes
[1]; 6% Sucrose + 25 μM (8.9 ppm) compound, pH 7.1, n = 24
  Average Sweetness: 10.6
[1]; 6% Sucrose + 25 μM compound, p>0.10
  Sweetness vs sucrose solutions (conclusion): not significantly different in sweetness than 10% or 12% sucrose
[1]; 6% Sucrose + 25 μM compound, pH 7.1, n = 24
  Average Bitterness: 0.1
[1]; 6% Sucrose + 50 μM (17.7 ppm) compound, pH 7.1, n = 15
  Average Sweetness: 9.9
[1]; 6% Sucrose + 50 μM compound, p>0.10
  Sweetness vs sucrose solutions (conclusion): not significantly different in sweetness compared to 10% or 12% Sucrose
[1]; 6% Sucrose + 50 μM compound, pH 7.1, n = 15
  Average Bitterness: 0.2
[1]; 6% Sucrose + 1 ppm (2.82 μM) compound, n = 30
  Average Bitterness: 0.7
[1]; 6% Sucrose + 1 ppm (2.82 μM) compound, pH 7.1, n = 30
  Average Sweetness: 7.5
[1]; 6% Sucrose + 2 ppm (5.64 μM) compound, n = 30
  Average Bitterness: 0.4
[1]; 6% Sucrose + 2 ppm (5.64 μM) compound, pH 7.1, n = 30
  Average Sweetness: 8.0
[1]; 6% Sucrose + 4 ppm (11.29 μM) compound, n = 30
  Average Bitterness: 0.4
[1]; 6% Sucrose + 4 ppm (11.29 μM) compound, pH 7.1, n = 30
  Average Sweetness: 10.1
[1]; 6% Sucrose + 5 ppm (14.11 μM) compound, n = 30
  Average Bitterness: 0.4
[1]; 6% Sucrose + 5 ppm (14.11 μM) compound, pH 7.1, n = 30
  Average Sweetness: 10.2
[1]; 6% Sucrose + 7 ppm (19.75 μM) compound, n = 30
  Average Bitterness: 0.3
[1]; 6% Sucrose + 7 ppm (19.75 μM) compound, pH 7.1, n = 30
  Average Sweetness: 10.3
[1]; 6% Sucrose + 7 ppm compound, p>0.10
  Sweetness vs sucrose solutions (conclusion): not significantly different than 10% or 12% sucrose
[1]; 6% Sucrose + 10 ppm (28.22 μM) compound, n = 30
  Average Bitterness: 0.6
[1]; 6% Sucrose + 10 ppm (28.22 μM) compound, pH 7.1, n = 30
  Average Sweetness: 10.9
[1]; 6% Sucrose + 10 ppm compound, p>0.10
  Sweetness vs sucrose solutions (conclusion): not significantly different than 10% or 12% sucrose
[1]; 6% sucrose + 25 μM compound
  off tastes: no significant off tastes
[1]; 6% sucrose + 4 ppm compound, p>0.10
  Sweetness vs sucrose solutions (conclusion): not significantly different than 10% sucrose
[1]; 8.9 ppm compound in 2-4% sucrose, LSB, pH 7.1
  off tastes: no significant off tastes
[2]; 28 μM (9.9 ppm) compound chosen, vs 1% Sucrose, n = 32
  Sample selected as more sweet by panelists, Total: 4
[2]; 28 μM compound vs 1% sucrose
  Sweetness comparison (conclusion): 1% sucrose was significantly sweeter
[2]; 6% Fructose + 25 μM (8.9 ppm) compound chosen, vs 6% Fructose, N = 25
  Sample selected as sweeter by panelists, Test 1: 20
[2]; 6% Fructose + 25 μM (8.9 ppm) compound chosen, vs 7% Fructose, N = 25
  Sample selected as more sweet by panelists, Test 1: 12
[2]; 6% fructose + 25 μM compound vs 6% fructose, p<0.05
  Sweetness comparison (conclusion): significantly sweeter than 6% fructose
[2]; 6% fructose + 25 μM compound vs 7% fructose
  Sweetness comparison (conclusion): no significant difference in sweetness
